Reference: patent US11485987B2, “Methods for inducing bioorthogonal reactivity” (University of Delaware, priority 2015, dated 2022)

Assays:
[1] = DHTz stability in PBS containing 10% mouse serum; format: in vitro ADME; details: 1 h
From the text: A challenge to the development of catalytic methods for turning on the tetrazine ligation was the identification of a DHTz/Tz pair that would be stable in both oxidation states (FIG. 1, panel B). For most redox couples, either the DHTz is too readily oxidized in air (e.g., 1), or the Tz is too reactive toward water and other nucleophiles (e.g., 2). The inventors show here that the dipyridyl DHTz/Tz pair (3/4) has good stability in both states (FIG. 1, panel C). Dihydrotetrazines 3 are highly resistant toward background oxidation in organic solvents, and a number of derivatives have been synthesized and shown stable even to silica gel chromatography. […] Aqueous solutions of 3a were handled in glassware that had been first rinsed with 2.0 mM EDTA in PBS to remove adventitious metal impurities. After standing in the dark at 25° C. in PBS buffer, a solution of 3a was monitored by UV-vis and shown to retain 99 and 96% of the DHTz oxidation state over 30 min and 2.5 hours respectively. […] In PBS containing 10% mouse serum, 90% of 3a was retained in the DHTz oxidation state after 1 h. Analogs of tetrazines 4 have been described previously and used broadly for applications in nuclear medicine and cell imaging. […]

[2] = target: T1, horseradish peroxidase (HRP) (Armoracia rusticana, UniProt P00433); experiment: Horseradish peroxidase (HRP) catalyzed oxidation of DHTz to tetrazine; format: biochemical; details: HRP 15 nM; for Rate of HRP Oxidation of 3a: first 10 seconds
T1 sequence (P00433 31-338): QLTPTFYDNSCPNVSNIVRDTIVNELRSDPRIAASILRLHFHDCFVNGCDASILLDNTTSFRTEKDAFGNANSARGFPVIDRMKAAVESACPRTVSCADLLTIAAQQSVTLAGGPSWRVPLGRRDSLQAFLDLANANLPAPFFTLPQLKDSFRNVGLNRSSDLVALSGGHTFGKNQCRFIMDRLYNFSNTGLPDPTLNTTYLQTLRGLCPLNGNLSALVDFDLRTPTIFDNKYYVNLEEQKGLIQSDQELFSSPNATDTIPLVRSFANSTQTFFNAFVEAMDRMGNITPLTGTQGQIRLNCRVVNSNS
Description: (§1) Upon addition of horseradish peroxidase (15 nM) the UV-vis spectrum was monitored every 10 seconds. With 50% conversion after 100 seconds, complete conversion of 3a to 4a is observed after 600 seconds, as evidenced by the decrease in the absorption at 292 nm and increase at 325 nm with an isosbestic point at 303 nm. Similar spectral changes are observed when 3a is electrochemically oxidized to 4a in aqueous solution, or when the oxidation of 3a to 4a is photocatalyzed by methylene blue. […] Methylene blue was considered a particularly attractive sensitizer due to its clinical relevance, low molecular weight, low toxicity, high solubility, and an absorption spectrum (λmax 665 nm) that extends to the near IR. Further, methylene blue has previously been explored for applications in photodynamic therapy based on oxidation of indole-3-acetic acid. Rose bengal (λmax 550 nm), used in a range of biomedical applications, was also identified as an excellent sensitizer. […] Methylene blue (4 μM) also catalyzed the conversion of 3a to 4a in the presence of ambient light, with 47% conversion noted after 2 h. […] The mechanism of photooxidation more likely involves electron transfer and is the subject of ongoing study.
As a complement to these photocatalyzed reactions, the inventors observed that HRP can efficiently catalyze the oxidation of 3a in the dark at low enzyme concentration (15 nM) (FIG. 4). While HRP typically requires H2O2 as the terminal oxidant, the addition of HRP to a peroxide-free solution of 3a (30 μM) in PBS led to the rapid formation of 4a (FIG. 4, panel B). […] Neither cytochrome c nor hemoglobin were effective catalysts of DHTz oxidation, with only slow conversion of 3a to 4a even with heme concentrations that were nearly 3 orders of magnitude higher than that used with HRP.
Solutions (1 mL) containing 3a (30 μm) in PBS buffer were prepared in a cuvette from stock solutions. Oxidation of 3a to 4a was monitored by recording absorbance at 325 nm every 10 seconds while either hydrogen peroxide (2 mM), HRP (15 nM) or both were added (FIG. 4, panel B). For the superoxide dismutase experiment, HRP (15 nM) was added followed by SOD (770 nM) 40 seconds later (FIG. 4, panel C). For the kinetics experiments, solutions (1 mL) containing 3a in PBS buffer with EDTA (2 mM) were prepared in the following concentrations of 3a: 9, 17, 34, 50, 83, 150 and 200 μM. The oxidation rate was determined by observing the conversion of 3a to 4a in the first 10 seconds after mixing in HRP (15 nM) and subtracting the background oxidation prior to the addition of HRP.

[3] = Methylene blue catalyzed photooxidation of DHTz to tetrazine
Description: as §1, with “Methylene blue (4 μM) also catalyzed the conversion of 3a to 4a in the presence of ambient light, with 47% conversion noted after 2 h.” left out
Thus, a PBS solution of 3a was sparged with 98% nitrogen and 2% air, such that the final O2 concentration was 5 μM.
Oxidation of 3a to 4a was monitored by recording absorbance at 325 nm every 30 seconds. Cuvettes for these experiments were washed with EDTA/PBS as described in the General Considerations (section 2.1). […]

A19V D222G APEX2 = experiment: Oxidation of 15 by APEX2 variant A19V D222G APEX2; format: biochemical; details: 15 40 μM, enzyme 275 nM, PBS with EDTA
Description: 15 (40 μM) from methanol stock solutions was added to PBS containing […] EDTA. After 10s, APEX2 (275 nM) was dosed in and oxidation was monitored at 325 nm for 15. The procedure stated above was repeated for F41A APEX2 and A19V D222G APEX2. (FIG. 17).

retained in the DHTz oxidation state [1] [%]	time to complete conversion of 3a to 4a [2] [s]	conversion of 3a to 4a ([2]; after 100 seconds) [%]	Rate of HRP Oxidation of 3a ([2]; [3a] 17 μM) [M/s]	Rate of HRP Oxidation of 3a ([2]; [3a] 34 μM) [M/s]	Rate of HRP Oxidation of 3a ([2]; [3a] 50 μM) [M/s]	Rate of HRP Oxidation of 3a ([2]; [3a] 83 μM) [M/s]	Rate of HRP Oxidation of 3a ([2]; [3a] 150 μM) [M/s]	Rate of HRP Oxidation of 3a ([2]; [3a] 200 μM) [M/s]	SMILES	time to quantitative conversion to tetrazine 4a ([3]; 3a 21 μM, methylene blue 4 μM, 660 nm LED 9.1 mW/cm^2, pH 7.4 PBS) [s]	time to complete conversion of 3a to 4a ([3]; hypoxia model, O2 5 μM, methylene blue 7 μM, 660 nm) [min]	conversion of 3a to 4a ([3]; methylene blue 4 μM, ambient light, 2 h) [%]	oxidation by A19V D222G APEX2 (tetrazine formation at 325 nm) (A19V D222G APEX2)
90	600	50	5.6e-08	8.9e-08	1.2e-07	2.1e-07	2.5e-07	2.6e-07	O=C(O)CCC(=O)Nc1ccc(C2=NNC(c3ccccn3)=NN2)nc1 [3a, 4-oxo-4-((6-(6-(pyridin-2-yl)-1,4-dihydro-1,2,4,5-tetrazin-3-yl)pyridin-3-yl)amino)butanoic Acid]	≤ 200	≤ 30	47	–
–	–	–	–	–	–	–	–	–	O=C(O)CCCC(=O)Nc1ccc(C2=NNC(c3ccccn3)=NN2)nc1 [compound 15]	–	–	–	can oxidize 15
